The target of one assay is T1, hNET (Homo sapiens, UniProt P23975).
T1 construct: expressed in transfected cells; host or cells: HEK-293 derived cell line, stably transfected; membrane preparation
In words: hNET binding assay (Assay 1). How it is done: (§1) Membrane radioligand binding assays were used to measure competitive inhibition of labeled ligand (^3H-citalopram or ^3H-nisoxetine or ^3H-WIN35428) binding to membranes prepared from cells expressing the respective human recombinant transporter (hSERT or hNET or hDAT) in order to determine the pKi values of test compounds at the transporters.
(§2) Recombinant human embryonic kidney (HEK-293) derived cell lines stably transfected with hSERT or hNET, respectively, were grown in DMEM medium supplemented with 10% dialyzed FBS (for hSERT) or FBS (for hNET), 100 μg/ml penicillin, 100 μg/ml streptomycin, 2 mM L-glutamine and 250 μg/ml of the aminoglycoside antibiotic G418, in a 5% CO2 humidified incubator at 37° C. When cultures reached 80% confluence, the cells were washed thoroughly in PBS (without Ca^2+ and Mg^2+) and lifted with 5 mM EDTA in PBS. Cells were pelleted by centrifugation, resuspended in lysis buffer (10 mM Tris-HCl, pH 7.5 containing 1 mM EDTA), homogenized, pelleted by centrifugation, then resuspended in 50 mM Tris-HCl, pH 7.5 and 10% sucrose at 4° C. Protein concentration of the membrane suspension was determined using a Bio-Rad Bradford Protein Assay kit. Membranes were snap frozen and stored at −80° C. Chinese hamster ovary membranes expressing hDAT (CHO-DAT) were purchased from PerkinElmer and stored at −80° C.
(§3) Stock solutions (10 mM in DMSO) of test compound were prepared and serial dilutions made using Dilution Buffer (50 mM Tris-HCl, 120 mM NaCl, 5 mM KCl, pH 7.4, 0.1% BSA, 400 μM ascorbic acid).
(§4) Following a 60 minute incubation at 22° C. (or a period sufficient to reach equilibrium), the membranes were harvested by rapid filtration over a 96-well UniFilter GF/B plate, pretreated with 0.3% polyethyleneimine, and washed 6 times with 300 μl wash buffer (50 mM Tris-HCl, 0.9% NaCl, pH 7.5 at 4° C.). Plates were dried overnight at room temperature, ˜45 μl of MicroScint™-20 (Perkin Elmer) added and bound radioactivity quantitated via liquid scintillation spectroscopy. Competitive inhibition curves and saturation isotherms were analyzed using GraphPad Prism Software package (GraphPad Software, Inc., San Diego, Calif.). IC50 values were generated from concentration response curves using the Sigmoidal Dose Response (variable slope) algorithm in Prism GraphPad.

Another assay concerns the target T2, hSERT (Homo sapiens, UniProt P31645).
T2 construct: expressed in transfected cells; host or cells: HEK-293 derived cell line, stably transfected; membrane preparation
In words: hSERT binding assay (Assay 1). As for the experimental part: as §1, §2, §3, §4

Setting [1] is: hNET binding, read-out: NET pKi (converted).
[2] abbreviates: ratio of SERT Ki to NET Ki (binding).
The mark [3] stands for this setting: hNET binding, the tables list only compounds with NET pKi≧8, read-out: NET pKi (converted).
[4] abbreviates: ratio of binding Ki at SERT to Ki at NET, the tables list only compounds with a ratio in the range 0.1-100.
Setting [5] is: membranes of HEK-293 cells expressing hNET, 1.0 nM 3H-nisoxetine, read-out: NET pKi (converted).
[6] abbreviates: ratio of binding Ki at hSERT to Ki at hNET, rounded off to the nearest tenth.
[7] abbreviates: hNET binding assay, read-out: NET pKi (converted).
Setting [8] is: ratio of SERT Ki to NET Ki from binding assays.

Structures are written as SMILES. Where two headings read alike, the source gives them in different places.

T1 sequence (P23975 whole entry): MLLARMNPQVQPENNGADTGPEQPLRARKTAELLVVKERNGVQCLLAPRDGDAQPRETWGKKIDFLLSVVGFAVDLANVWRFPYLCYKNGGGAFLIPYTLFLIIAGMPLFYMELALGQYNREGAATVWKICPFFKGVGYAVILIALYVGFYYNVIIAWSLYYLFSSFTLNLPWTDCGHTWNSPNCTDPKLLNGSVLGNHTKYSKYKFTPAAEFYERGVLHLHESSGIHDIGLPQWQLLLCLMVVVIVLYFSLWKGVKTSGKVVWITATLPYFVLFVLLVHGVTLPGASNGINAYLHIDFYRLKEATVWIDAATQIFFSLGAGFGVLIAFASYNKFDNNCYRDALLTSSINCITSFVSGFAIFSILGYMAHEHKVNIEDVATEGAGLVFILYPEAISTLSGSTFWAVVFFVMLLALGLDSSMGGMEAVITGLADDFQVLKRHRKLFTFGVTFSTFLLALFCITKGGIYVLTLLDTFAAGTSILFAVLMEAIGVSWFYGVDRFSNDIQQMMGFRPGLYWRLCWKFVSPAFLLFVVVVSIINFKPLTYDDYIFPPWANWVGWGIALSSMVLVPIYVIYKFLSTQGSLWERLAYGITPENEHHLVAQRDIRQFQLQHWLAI
T2 sequence (P31645 whole entry): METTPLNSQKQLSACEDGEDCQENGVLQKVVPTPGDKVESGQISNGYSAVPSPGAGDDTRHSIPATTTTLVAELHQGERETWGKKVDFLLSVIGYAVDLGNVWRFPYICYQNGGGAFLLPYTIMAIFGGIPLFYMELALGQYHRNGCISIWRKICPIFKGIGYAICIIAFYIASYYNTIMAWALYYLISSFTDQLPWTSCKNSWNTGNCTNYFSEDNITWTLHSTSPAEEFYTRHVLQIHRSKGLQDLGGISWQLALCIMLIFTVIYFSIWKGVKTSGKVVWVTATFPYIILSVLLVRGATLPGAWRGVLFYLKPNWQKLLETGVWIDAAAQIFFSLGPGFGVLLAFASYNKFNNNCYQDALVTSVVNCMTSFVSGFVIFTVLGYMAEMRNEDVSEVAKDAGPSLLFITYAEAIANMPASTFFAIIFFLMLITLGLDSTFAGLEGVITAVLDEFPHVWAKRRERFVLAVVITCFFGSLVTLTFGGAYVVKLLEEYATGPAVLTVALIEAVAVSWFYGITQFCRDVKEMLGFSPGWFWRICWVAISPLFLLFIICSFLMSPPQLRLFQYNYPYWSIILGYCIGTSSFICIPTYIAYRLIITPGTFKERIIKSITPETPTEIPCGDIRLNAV

For `Cc1cc(F)cc([C@@H](Oc2c(Cl)ccc(C)c2Cl)[C@@H]2CCNC2)c1` (racemic) [41-23], the Ki on hNET (setting [1]) was 1.58 nM. Moreover, on hSERT (setting [2]), the “SERT Ki/NET Ki” value stood at 0.5.
For `Cc1ccc(Cl)c(OC(c2ccc(C#N)cc2)C2CCNC2)c1Cl` (stereo not drawn) [41-15] the same measures were 1 nM and 0.6.
On to `Fc1cc(F)c(Cl)c(OC(c2ccccc2Cl)C2CCNC2)c1Cl` (stereo not drawn) [48-4], for which the Ki at hNET (setting [3]) is 7.94 nM. In addition, the “SERT Ki/NET Ki” value on hSERT (setting [4]) was found to be 0.2.
As for `CCOc1ccccc1OC(c1ccccc1)C1CCNC1` (stereo not drawn) [Ex. 5, 3-[(2-Ethoxyphenoxy)phenylmethyl]pyrrolidine], on hNET (setting [5]), the Ki was 1.26 nM. For the same compound, the “SERT Ki/NET Ki” value on hSERT (setting [6]) is 32.
As to `Fc1ccc(Br)cc1OC(c1ccccc1)C1CCNC1` (stereo not drawn) [29-7], the Ki on hNET (setting [7]) was 0.794 nM. Besides, the “SERT Ki/NET Ki” value at hSERT (setting [8]) amounted to 1.6.
`Clc1cc(Cl)c(Cl)c(OC(c2ccccc2)C2CCNC2)c1Cl` (stereo not drawn) [Ex. 10-2, 3-[phenyl-(2,3,5,6-tetrachlorophenoxy)methyl]pyrrolidine]: the Ki on hNET (NET pKi, hNET binding, the tables list only compounds with NET pKi≧8) was 1.26 nM. Moreover, the “SERT Ki/NET Ki” value on hSERT (setting [4]) was 0.1.
Take `Cc1cc(Cl)c(OC(c2ccccc2)C2CCNC2)cc1F` (stereo not drawn) [42-4]: the Ki on hNET (setting [1]) was 2.51 nM. Besides, the “SERT Ki/NET Ki” value on hSERT (setting [2]) was determined as 0.5.
Turning to `Fc1cc(F)cc([C@@H](Oc2c(Cl)c(F)cc(F)c2Cl)[C@@H]2CCNC2)c1` [48-3], the Ki at hNET (setting [3]) was 0.251 nM. The “SERT Ki/NET Ki” value at hSERT (setting [4]) worked out at 2.
Consider `Fc1cc(F)cc(C(Oc2cc(F)c(F)cc2F)C2CCNC2)c1` (stereo not drawn) [43-1], for which, on hNET (setting [1]), the Ki was 2 nM. At hSERT (setting [2]), the “SERT Ki/NET Ki” value is given as 32.
Take `COc1cccc(C(Oc2ccccc2Cl)C2CCNC2)c1` (stereo not drawn) [Compound 20-7]: the Ki at hNET (setting [5]) is 3.16 nM. The “SERT Ki/NET Ki” value on hSERT (setting [6]) was determined as 1.3.
Turning to `COC(=O)c1cc(Cl)ccc1OC(c1ccccc1)C1CCNC1` (stereo not drawn) [27-34], at hNET (setting [7]), the Ki is 2.51 nM. Moreover, the “SERT Ki/NET Ki” value on hSERT (setting [8]) is given as 4.
As to `Fc1cc(F)cc(C(Oc2c(F)ccc(F)c2F)C2CCNC2)c1` (stereo not drawn) [41-2], the Ki on hNET (setting [1]) is 2.51 nM. For the same compound, the “SERT Ki/NET Ki” value on hSERT (setting [2]) amounted to 1.
For `Fc1cc(F)c(Cl)c(O[C@@H](c2ccccc2)[C@H]2CCNC2)c1` [Ex. 8-1, (S)-3-[(R)-(2-Chloro-3,5-difluorophenoxy)phenylmethyl]pyrrolidine] the same measures were 2 nM and 2.5.
For `Cc1ccc(F)c(OC(c2ccccc2)C2CCNC2)c1F` (stereo not drawn) [40-25], in that order: 0.501 nM and 2.
For the compound `Cc1cccc(F)c1OC(c1ccccc1)C1CCNC1` (stereo not drawn) [31-6], the Ki on hNET (setting [7]) was 1.58 nM. In addition, on hSERT (setting [8]), the “SERT Ki/NET Ki” value stood at 2.
As for `Fc1ccc(Cl)c(Cl)c1OC(c1ccccc1)C1CCNC1` (stereo not drawn) [40-12], the Ki at hNET (setting [1]) was 0.251 nM. Further, the “SERT Ki/NET Ki” value on hSERT (setting [2]) stood at 1.3.
Take `Fc1cc(Cl)cc(F)c1OC(c1ccccc1)C1CCNC1` (stereo not drawn) [44-8]: at hNET (setting [3]), the Ki was 3.98 nM. In addition, the “SERT Ki/NET Ki” value at hSERT (setting [4]) is given as 0.1.
In the case of `COc1ccc(F)c(Cl)c1O[C@@H](c1ccccc1)[C@H]1CCNC1` [40-22], the Ki at hNET (setting [1]) is 0.631 nM. Further, the “SERT Ki/NET Ki” value on hSERT (setting [2]) turned out to be 13.
As to `Fc1cccc(C(Oc2ccccc2Cl)C2CCNC2)c1` (stereo not drawn) [Compound 20-4], the Ki on hNET (setting [5]) was 2.51 nM. Besides, the “SERT Ki/NET Ki” value at hSERT (setting [6]) was 0.63.
As to `Cc1c(F)ccc(OC(c2ccccc2)C2CCNC2)c1F` (stereo not drawn) [36-7], at hNET (setting [1]), the Ki is 5.01 nM. Moreover, the “SERT Ki/NET Ki” value at hSERT (setting [2]) is recorded as 0.3.
Consider `Fc1cc(F)cc(C(Oc2ccc(Cl)cc2F)C2CCNC2)c1` (stereo not drawn) [28-9], for which, on hNET (setting [7]), the Ki was 3.16 nM. Besides, the “SERT Ki/NET Ki” value on hSERT (setting [8]) was 0.3.
As to `Fc1ccc(C(Oc2cc(Cl)cc(Cl)c2)C2CCNC2)cc1` (stereo not drawn) [35-9], the Ki at hNET (setting [1]) was 7.94 nM. Moreover, the “SERT Ki/NET Ki” value at hSERT (setting [2]) is listed as 0.1.
With `Cc1ccc(OC(c2ccccc2)C2CCNC2)cc1F` (stereo not drawn) [33-2], the Ki at hNET (setting [7]) is 5.01 nM. Besides, the “SERT Ki/NET Ki” value on hSERT (setting [8]) stood at 0.1.
For the compound `Cc1ccc(Cl)c(O[C@@H](c2cc(F)cc(F)c2)[C@H]2CCNC2)c1Cl` [41-27], at hNET (setting [1]), the Ki was 0.794 nM. For the same compound, the “SERT Ki/NET Ki” value on hSERT (setting [2]) was found to be 0.8.
